pIC50: −log10 of the molar value. Read-outs that look alike come from different tables or passages of the source.
Tests used:
[1] = Pharmacokinetic study in plasma samples; type: in vivo, mouse; conditions: 10 mg/kg i.p.; for CL/F: read-out: Norm. Cl/F (converted)
Experimental: Compounds CM-444 and CM-1758 were measured in plasma using an Acquity UPLC system (Waters, Manchester, UK) coupled to an Xevo-TQ MS triple-quadrupole mass spectrometer with ESI source.
Compound solutions were prepared by dissolving the solid in dimethyl sulfoxide (DMSO) and this solution was made up to a final volume by the addition of a mixture of Tween 20 and 0.9% NaCl (1/1/8, v-v:v, DMSO/Tween 20/saline). For the pharmacokinetic experiments, a drug dosage of 10 mg/kg was administered as a single intraperitoneal injection to RAG-2 mice. Blood was collected at predetermined post-injection times (15 min, and 1, 2, 4, 8 and 24 h) into EDTA-containing tubes, and plasma was obtained via centrifugation (4 °C, 657 g, 5 min) and stored at −80 °C until analysis.
Chromatographic separation was performed by gradient elution at 0.6 mL/min using an Acquity UPLC BEH C18 column (50 × 2.1 mm, 1.7 µm; Waters). The mobile phase consisted of A: water with 0.1% formic acid, B: methanol with 0.1% formic acid. The autosampler temperature was set at 10 °C and the column temperature at 40 °C. For detection and quantification, the ESI operated in the positive mode was set up for multiple reaction monitoring. The collision gas used was ultra-pure argon at a flow rate of 0.15 mL/min.
Quantification was achieved by external calibration using matrix-matched standards. Concentrations were calculated using a weighted least-squares linear regression (W = 1/x). Calibration standards were prepared by adding the appropriate volume of diluted compound solution (made in a mixture of methanol and water, 50:50, v-v) to aliquots of 20 µL of blank plasma. The calibration standard and sample preparation were as follows: 3% formic acid in methanol was added to precipitate the proteins. The mixture was then vortex-agitated for 1 min and centrifuged at 16,522 g for 10 min at 4 °C. A 5-µL aliquot of the supernatant solution was injected into the LC-MS/MS system for analysis. Frozen plasma samples were thawed at room temperature, vortex mixed thoroughly and subjected to the above-described extraction procedure.
The pharmacokinetic parameters were obtained by fitting the blood concentration-time data to a non-compartmental model with WinNonlin software (Pharsight, Mountain View, CA).

HDAC4 = target: T1, HDAC4 (Homo sapiens, UniProt P56524); assay: HDAC assay (Eurofins); type: biochemical
T1 construct: purchased Eurofins (contracted assay service)
T1 sequence (P56524 whole entry): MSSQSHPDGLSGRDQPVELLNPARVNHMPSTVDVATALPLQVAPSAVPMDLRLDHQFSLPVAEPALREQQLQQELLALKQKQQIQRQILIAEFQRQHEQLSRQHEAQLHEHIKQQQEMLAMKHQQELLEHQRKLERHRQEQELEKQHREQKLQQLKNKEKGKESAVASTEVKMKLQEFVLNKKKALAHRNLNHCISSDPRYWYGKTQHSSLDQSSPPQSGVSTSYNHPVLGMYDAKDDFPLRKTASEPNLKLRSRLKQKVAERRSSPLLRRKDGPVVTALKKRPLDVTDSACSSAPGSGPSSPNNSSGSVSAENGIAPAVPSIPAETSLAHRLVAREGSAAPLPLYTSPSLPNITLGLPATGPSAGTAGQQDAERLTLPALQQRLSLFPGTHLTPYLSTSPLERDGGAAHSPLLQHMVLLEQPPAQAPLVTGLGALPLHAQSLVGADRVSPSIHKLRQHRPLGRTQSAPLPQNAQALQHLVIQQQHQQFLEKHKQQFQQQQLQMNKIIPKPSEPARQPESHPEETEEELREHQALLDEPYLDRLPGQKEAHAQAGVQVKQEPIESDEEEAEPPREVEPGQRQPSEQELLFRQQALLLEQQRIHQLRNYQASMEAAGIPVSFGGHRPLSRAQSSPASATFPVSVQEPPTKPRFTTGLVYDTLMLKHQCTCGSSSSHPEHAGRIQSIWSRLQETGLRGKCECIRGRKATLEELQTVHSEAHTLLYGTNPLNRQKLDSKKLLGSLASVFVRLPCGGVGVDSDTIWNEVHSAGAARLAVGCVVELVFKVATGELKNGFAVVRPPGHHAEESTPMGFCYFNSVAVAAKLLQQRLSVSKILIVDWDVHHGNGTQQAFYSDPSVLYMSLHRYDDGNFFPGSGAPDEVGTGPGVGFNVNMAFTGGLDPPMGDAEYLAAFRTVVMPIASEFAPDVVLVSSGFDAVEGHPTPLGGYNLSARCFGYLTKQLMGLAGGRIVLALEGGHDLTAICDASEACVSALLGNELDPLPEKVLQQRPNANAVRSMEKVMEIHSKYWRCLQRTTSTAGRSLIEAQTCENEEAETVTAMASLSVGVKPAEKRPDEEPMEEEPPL

HL-60 = assay: CUT&RUN of BRD4, H3K27Ac and H3K9Ac; type: cell-based, human; conditions: HL-60, 12 h
Experimental: CUT&RUN was performed with the kit CUTANA ChIC/CUT&RUN (Epicypher, 14-1048) following the manufacturer’s instructions. Briefly, 0.5 million of HL-60 cells were harvested and resuspended in 100ul wash buffer [20 mM HEPES pH 7.5, 150 mM NaCl, 0.5 mM Spermidine, supplemented with Protease Inhibitor EDTA-Free tablet (Roche 11836170001)]. Activated Concanavalin A was incubated with cells at room temperature for 10 min to let the cells bind to the beads. For each target protein factor, 0.5 μg of BRD4 CUTANA CUT&RUN antibody (Cat No 13-2003, Epicypher), Acetyl-Histone H3 (Lys 9) (C5B11) rabbit monoclonal antibody diluted 1:50 (Cat No 9649 T, Cell Signaling) or Acetyl-Histone H3 (Lys 27) (D5E4) XP rabbit monoclonal antibody diluted 1:100 (Cat No 8173T, Cell Signaling) was added to each sample and incubated in the antibody buffer (wash buffer +0.01% Digitonin and 2 mM EDTA) overnight at 4 °C. Isotype control IgG was used as a negative control. The beads were then washed twice with digitonin buffer [wash buffer +0.01% Digitonin] and 2.5 μL pAG-MNase was added to each sample. After ten minutes of incubation at room temperature, excessive pAG-MNase was washed out by a two-time digitonin buffer wash. Then targeted chromatin was digested and released from cells by 2 h of incubation with the presence of 2 mM CaCl2 at 4 °C. After incubation with stop buffer [340 mM NaCl, 20 mM EDTA, 4 mM EGTA, 50 μg/mL RNase A, 50 μg/mL Glycogen] for 10 min at 37 °C the supernatant containing CUT&RUN-enriched DNA was purified using the CUTANA DNA Purification kit (Epicypher). Finally, Illumina sequencing libraries were prepared from 6 ng of purified CUT&RUN DNA using NEBNext UltraTM II DNA Library Prep Kit for Illumina, following the manufacturer’s instructions. For BRD4, some modifications were added following the protocol of Nan Liu (Harvard University; 10.17504/protocols.io.wvgfe3w). Libraries were sequenced using NEXTseq500 (Illumina).
The Cut&Run samples were analyzed using the CUT&RUN tools pipeline with default settings and no filtering for 120 bp fragments. Peak calling was performed on deduplicated reads with macs2 version 2.2.6 using the respective IgG samples as control, narrow peak calling and paired-end settings, and a threshold of q = 0.01.
Specifically, 12 chromatin states, based on the combination of 6 histone marks, for 38 AML samples were used[59]. The vast majority of the regions could be entirely annotated to a single chromatin state while some could be entirely annotated to a single chromatin state after the replacement of consecutive chromatin states with similar characteristics with one of them (i.e combination of Transcription Transition / Transcription Elongation / Weak Transcription to Transcription Transition or combination of Heterochromatin; Represesed/ Heterochromatin; Low Signal to Heterochromatin; Repressed etc). The regions that couldn’t be entirely annotated to a single chromatin state or simplified chromatin state were removed. […] We then calculated the percentage of each chromatin state taking into account the width of the regions. As background, we used all the regions of each AML sample and we calculated the percentage of the chromatin states similarly. Finally, we calculated the fold change of each chromatin state as a percentage in the sample to a percentage in the background AML sample.

[2] = RAG-2, mouse, plasma, intraperitoneal, read-out: plasmatic concentration, Mean
[3] = RAG-2, mouse, plasma, ip, mice, NCA
[4] = RAG-2, mouse, plasma, ip, mice, NCA, read-out: Norm. Vz/F

SMILES | Cl/F ([1]; mice, NCA, mean) | concentration at 0.25 h [1, 2] | concentration at 1 h [1, 2] | concentration at 2 h [1, 2] | concentration at 4 h [1, 2] | concentration at 8 h [1, 2] | CL/F [1, 3] | Vd/F [1, 4] | clearance ([1]; mice) | pIC50 (HDAC4) | inhibition at 10 µM (HDAC4) | BRD4 CUT&RUN peaks (HL-60) | H3K9Ac CUT&RUN peaks (HL-60) | H3K27Ac CUT&RUN peaks (HL-60) | other results
COc1cc2nc(-c3cc(C)oc3C)cc(NCC3CCN(c4ncc(C(=O)NO)cn4)CC3)c2cc1OC [CM-1758, 2-[4-[[[2-(2,5-dimethyl-3-furyl)-6,7-dimethoxy-4-quinolyl]amino]methyl] -1-piperidyl]pyrimidine-5-carbohydroxamic acid] | 0.26 L/h | 1700 nM | 352 nM | 77.5 nM | 17.1 nM | 4.3 nM | 173 mL/min/kg | 28.6 L/kg | 0.26 lh^−1 | 6.89 | 97% | – | – | – | plasmatic concentration, Mean ([1]; 24 h): BLOQ; AUC(0-t) ([1]; RAG-2, mouse, plasma, ip, mice, NCA, mean): 1.69 µM·h; Vd/F ([1]; RAG-2, mouse, plasma, ip, mice, NCA, mean, read-out: Vz/F): 0.72 L; half-life ([1]; RAG-2, mouse, plasma, ip, mice, NCA, mean, read-out: t½ (converted)): 1.95 h
Cc1[nH]c2ccccc2c1CCNCc1ccc(/C=C/C(=O)NO)cc1 [Panobinostat, reference compound] | – | – | – | – | – | – | – | – | – | – | – | 16030 | 32775 | 26959 | –
COc1cc2nc(-c3ccc(C)o3)cc(NCC3CCN(c4ncc(C(=O)NO)cn4)CC3)c2cc1OC [CM-444, 2-[4-[[[6,7-dimethoxy-2-(5-methyl-2-furyl)-4-quinolyl]amino]methyl]-1-piperidyl]pyrimidine-5-carbohydroxamic acid] | 0.53 L/h | 916 nM | 203 nM | 27.7 nM | 5 nM | 2.4 nM | 355 mL/min/kg | 262 L/kg | 0.53 lh^−1 | 7.21 | 96% | 19570 | 7568 | 48991 | AUClast ([1]; mice, NCA, mean): 0.91615 µM·h; Vz/F ([1]; mice, NCA, mean): 6.56 L; t½ ([1]; mice, NCA, mean): 8.46 h; concentration at 24 h ([1]; RAG-2, mouse, plasma, intraperitoneal, 24 h, read-out: plasmatic concentration, Mean): 0.9 nM

Reference: article PMC11219871, “Epigenetic-based differentiation therapy for Acute Myeloid Leukemia” (Nature Communications, 2024)
